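The compound was tested at five concentrations on cells cultured in 96-well plates, with a 48-hour exposure period. TGI denotes the concentration required for complete inhibition of growth.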
Tests used:
Experiment in all cases: DTP human tumour cell line panel, 48 h
A498 renal = system: A498 renal
A549 NSCLC = system: A549 NSCLC
CCRF-CEM leukemia = system: CCRF-CEM leukemia
DMS 273 small cell lung = system: DMS 273 small cell lung
EKVX NSCLC = system: EKVX NSCLC
HL-60(TB) leukemia = system: HL-60(TB) leukemia
HOP-62 NSCLC = system: HOP-62 NSCLC
HOP-92 NSCLC = system: HOP-92 NSCLC
HT29 colon = system: HT29 colon
IGROV1 ovarian = system: IGROV1 ovarian
K-562 leukemia = system: K-562 leukemia
KM12 colon = system: KM12 colon
M14 melanoma = system: M14 melanoma
MOLT-4 leukemia = system: MOLT-4 leukemia
NCI-H226 lung = system: NCI-H226 lung
NCI-H23 lung = system: NCI-H23 lung
NCI-H460 lung = system: NCI-H460 lung
NCI-H522 lung = system: NCI-H522 lung
OVCAR-5 ovarian = system: OVCAR-5 ovarian
RXF 393 renal = system: RXF 393 renal
SF-268 CNS = system: SF-268 CNS
SK-MEL-28 melanoma = system: SK-MEL-28 melanoma
SK-OV-3 ovarian = system: SK-OV-3 ovarian
SNB-19 CNS = system: SNB-19 CNS
SNB-78 CNS = system: SNB-78 CNS
SR leukemia = system: SR leukemia
TK-10 renal = system: TK-10 renal
U251 CNS = system: U251 CNS
UACC-62 melanoma = system: UACC-62 melanoma
UO-31 renal = system: UO-31 renal
786-0 renal = system: 786-0 renal
ACHN renal = system: ACHN renal
BT-549 breast = system: BT-549 breast
CAKI-1 renal = system: CAKI-1 renal
COLO 205 colon = system: COLO 205 colon
DU-145 prostate = system: DU-145 prostate
HCC-2998 colon = system: HCC-2998 colon
HCT-116 colon = system: HCT-116 colon
HCT-15 colon = system: HCT-15 colon
HS 578T breast = system: HS 578T breast
MALME-3M melanoma = system: MALME-3M melanoma
MCF7 breast = system: MCF7 breast
MDA-MB-231 breast = system: MDA-MB-231 breast
MDA-MB-435 = system: MDA-MB-435
MDA-N = system: MDA-N
NCI/ADR-RES ovarian = system: NCI/ADR-RES ovarian
OVCAR-3 ovarian = system: OVCAR-3 ovarian
OVCAR-4 ovarian = system: OVCAR-4 ovarian
OVCAR-8 ovarian = system: OVCAR-8 ovarian
PC-3 prostate = system: PC-3 prostate
RPMI-8226 leukemia = system: RPMI-8226 leukemia
SF-295 CNS = system: SF-295 CNS
SF-539 CNS = system: SF-539 CNS
SK-MEL-2 melanoma = system: SK-MEL-2 melanoma
SK-MEL-5 melanoma = system: SK-MEL-5 melanoma
SN12C renal = system: SN12C renal
SNB-75 CNS = system: SNB-75 CNS
SW-620 colon = system: SW-620 colon
T-47D breast = system: T-47D breast

Question: `COC(=O)CN1CCSC1=NC#N` was tested. Which TGI (A498 renal) did it give?
Answer: The TGI was > 100 µM.

Question: What about the TGI (A549 NSCLC) of the same compound?
Answer: Its TGI is > 100 µM.

Question: And the TGI (CCRF-CEM leukemia)?
Answer: Its TGI is > 100 µM.

Question: What about the TGI (DMS 273 small cell lung) of the same compound?
Answer: Its TGI is > 100 µM.

Question: And the TGI (EKVX NSCLC)?
Answer: The TGI was > 100 µM.

Question: And the TGI (HL-60(TB) leukemia)?
Answer: The TGI was > 100 µM.

Question: And the TGI (HOP-62 NSCLC)?
Answer: The TGI was > 100 µM.

Question: What about the TGI (HOP-92 NSCLC) of the same compound?
Answer: Its TGI is > 100 µM.

Question: And the TGI (HT29 colon)?
Answer: Its TGI is > 100 µM.

Question: And the TGI (IGROV1 ovarian)?
Answer: The TGI was > 100 µM.

Question: And the TGI (K-562 leukemia)?
Answer: Its TGI is > 100 µM.

Question: And the TGI (KM12 colon)?
Answer: The TGI was > 100 µM.

Question: What about the TGI (M14 melanoma) of the same compound?
Answer: Its TGI is > 100 µM.

Question: And the TGI (MOLT-4 leukemia)?
Answer: The TGI was > 100 µM.

Question: What about the TGI (NCI-H226 lung) of the same compound?
Answer: The TGI was > 100 µM.

Question: And the TGI (NCI-H23 lung)?
Answer: The TGI was > 100 µM.

Question: What about the TGI (NCI-H460 lung) of the same compound?
Answer: The TGI was > 100 µM.

Question: And the TGI (NCI-H522 lung)?
Answer: Its TGI is > 100 µM.

Question: And the TGI (OVCAR-5 ovarian)?
Answer: The TGI was > 100 µM.

Question: What about the TGI (RXF 393 renal) of the same compound?
Answer: The TGI was > 100 µM.

Question: What about the TGI (SF-268 CNS) of the same compound?
Answer: Its TGI is > 100 µM.

Question: And the TGI (SK-MEL-28 melanoma)?
Answer: The TGI was > 100 µM.

Question: What about the TGI (SK-OV-3 ovarian) of the same compound?
Answer: The TGI was > 100 µM.

Question: And the TGI (SNB-19 CNS)?
Answer: Its TGI is > 100 µM.

Question: And the TGI (SNB-78 CNS)?
Answer: The TGI was > 100 µM.

Question: What about the TGI (SR leukemia) of the same compound?
Answer: The TGI was > 100 µM.

Question: What about the TGI (TK-10 renal) of the same compound?
Answer: The TGI was > 100 µM.

Question: What about the TGI (U251 CNS) of the same compound?
Answer: The TGI was > 100 µM.

Question: What about the TGI (UACC-62 melanoma) of the same compound?
Answer: The TGI was > 100 µM.

Question: What about the TGI (UO-31 renal) of the same compound?
Answer: Its TGI is > 100 µM.

Question: For `c1ccc(/C(=N/Nc2ccccn2)c2ncccn2)cc1`, which TGI (786-0 renal) is on record?
Answer: The TGI was > 100 µM.

Question: What about the TGI (A498 renal) of the same compound?
Answer: Its TGI is > 100 µM.

Question: What about the TGI (A549 NSCLC) of the same compound?
Answer: Its TGI is > 76.9 µM.

Question: And the TGI (ACHN renal)?
Answer: The TGI was 13.3 µM.

Question: And the TGI (BT-549 breast)?
Answer: The TGI was > 100 µM.

Question: What about the TGI (CAKI-1 renal) of the same compound?
Answer: The TGI was 5.69 µM.

Question: And the TGI (CCRF-CEM leukemia)?
Answer: The TGI was > 100 µM.

Question: What about the TGI (COLO 205 colon) of the same compound?
Answer: The TGI was > 71.2 µM.

Question: And the TGI (DU-145 prostate)?
Answer: The TGI was > 100 µM.

Question: What about the TGI (EKVX NSCLC) of the same compound?
Answer: The TGI was 5.73 µM.

Question: What about the TGI (HCC-2998 colon) of the same compound?
Answer: Its TGI is > 100 µM.

Question: And the TGI (HCT-116 colon)?
Answer: The TGI was > 100 µM.

Question: What about the TGI (HCT-15 colon) of the same compound?
Answer: Its TGI is > 100 µM.

Question: And the TGI (HL-60(TB) leukemia)?
Answer: The TGI was > 100 µM.

Question: And the TGI (HOP-62 NSCLC)?
Answer: Its TGI is > 42.7 µM.

Question: What about the TGI (HOP-92 NSCLC) of the same compound?
Answer: The TGI was > 34.5 µM.

Question: What about the TGI (HS 578T breast) of the same compound?
Answer: The TGI was > 44.9 µM.

Question: And the TGI (HT29 colon)?
Answer: The TGI was > 47.4 µM.

Question: And the TGI (IGROV1 ovarian)?
Answer: The TGI was > 21 µM.

Question: And the TGI (K-562 leukemia)?
Answer: Its TGI is > 39.8 µM.

Question: What about the TGI (KM12 colon) of the same compound?
Answer: Its TGI is > 53.8 µM.

Question: What about the TGI (M14 melanoma) of the same compound?
Answer: The TGI was 6.93 µM.

Question: What about the TGI (MALME-3M melanoma) of the same compound?
Answer: Its TGI is 59.8 µM.

Question: And the TGI (MCF7 breast)?
Answer: Its TGI is > 100 µM.

Question: And the TGI (MDA-MB-231 breast)?
Answer: Its TGI is > 100 µM.

Question: And the TGI (MDA-MB-435)?
Answer: Its TGI is > 100 µM.

Question: What about the TGI (MDA-N) of the same compound?
Answer: Its TGI is > 100 µM.

Question: What about the TGI (NCI-H226 lung) of the same compound?
Answer: The TGI was 0.956 µM.

Question: And the TGI (NCI-H23 lung)?
Answer: The TGI was > 37.6 µM.

Question: What about the TGI (NCI-H460 lung) of the same compound?
Answer: Its TGI is > 57.8 µM.

Question: What about the TGI (NCI-H522 lung) of the same compound?
Answer: Its TGI is 0.679 µM.

Question: And the TGI (NCI/ADR-RES ovarian)?
Answer: Its TGI is 4.67 µM.

Question: And the TGI (OVCAR-3 ovarian)?
Answer: The TGI was > 44.3 µM.

Question: And the TGI (OVCAR-4 ovarian)?
Answer: Its TGI is > 100 µM.

Question: What about the TGI (OVCAR-5 ovarian) of the same compound?
Answer: The TGI was > 100 µM.

Question: What about the TGI (OVCAR-8 ovarian) of the same compound?
Answer: The TGI was 3.43 µM.

Question: What about the TGI (PC-3 prostate) of the same compound?
Answer: Its TGI is > 100 µM.

Question: And the TGI (RPMI-8226 leukemia)?
Answer: Its TGI is > 62.9 µM.

Question: And the TGI (RXF 393 renal)?
Answer: The TGI was > 100 µM.

Question: And the TGI (SF-268 CNS)?
Answer: Its TGI is 5.06 µM.

Question: What about the TGI (SF-295 CNS) of the same compound?
Answer: Its TGI is > 44.6 µM.

Question: And the TGI (SF-539 CNS)?
Answer: Its TGI is 46 µM.

Question: What about the TGI (SK-MEL-2 melanoma) of the same compound?
Answer: Its TGI is > 100 µM.

Question: What about the TGI (SK-MEL-28 melanoma) of the same compound?
Answer: The TGI was > 78.1 µM.

Question: And the TGI (SK-MEL-5 melanoma)?
Answer: Its TGI is 26.9 µM.

Question: And the TGI (SK-OV-3 ovarian)?
Answer: Its TGI is > 28.7 µM.

Question: And the TGI (SN12C renal)?
Answer: Its TGI is > 100 µM.

Question: What about the TGI (SNB-19 CNS) of the same compound?
Answer: Its TGI is > 100 µM.

Question: What about the TGI (SNB-75 CNS) of the same compound?
Answer: The TGI was 16.2 µM.

Question: And the TGI (SR leukemia)?
Answer: Its TGI is > 27.5 µM.

Question: And the TGI (SW-620 colon)?
Answer: Its TGI is > 20.2 µM.

Question: And the TGI (T-47D breast)?
Answer: The TGI was > 100 µM.

Question: And the TGI (U251 CNS)?
Answer: Its TGI is > 51.6 µM.

Question: What about the TGI (UACC-62 melanoma) of the same compound?
Answer: The TGI was 12.2 µM.

Question: What about the TGI (UO-31 renal) of the same compound?
Answer: Its TGI is 6.27 µM.

Source: PubChem BioAssay (NCI)
